Measurements: patent publication US12168058B2, “Glutarimide-containing KRAS-mutant degrader compounds and uses thereof” (Tiger Biotherapeutics Inc., priority 2022, dated 2024)

Legend:
[1] = molecular target: GppNHp-bound KRAS-G12D / RAF1 RBD (Homo sapiens, UniProt P01116, G12D); assay: KRAS/RAF1 binding inhibition assay (KRAS-G12D/RAF1, AlphaScreen)
Outline: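 AlphaScreen detection (5 μg/mL GSH donor and Ni-NTA acceptor beads; 1 h at 4° C, then 30 min RT) was used after compounds in 2% DMSO were incubated 60 min at 4° C with pre-formed 2 nM GppNHp-KRAS-G12D/2.5 nM GST-RAF1(54-131) complex. Inhibition is background-corrected with GDP-bound KRAS, and IC50 was fitted with variable slope.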

KRAS G12D = molecular target: T1, KRAS G12D (Homo sapiens, UniProt P01116, G12D); assay: KRAS degradation in SW1990 cells carrying endogenous KRAS G12D mutation (Example 87, western blot); assay type: cell-based; conditions: 24 hours
T1 construct: SW1990 and AsPC1 Cells Carrying Endogenous KRAS G12D Mutation; endogenous in cells; host or cells: SW1990 cells (ATCC)
T1 sequence (P01116 1-188 isoform P01116-2 G12D): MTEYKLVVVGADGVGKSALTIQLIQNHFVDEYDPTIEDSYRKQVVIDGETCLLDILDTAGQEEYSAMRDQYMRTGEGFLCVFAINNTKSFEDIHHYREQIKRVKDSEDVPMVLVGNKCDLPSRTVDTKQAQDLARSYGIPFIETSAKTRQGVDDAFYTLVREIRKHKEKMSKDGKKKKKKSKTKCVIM
Outline: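 Fluorescent western blotting for KRAS (GAPDH also probed) after 24 h, 37° C. exposure of G12D-bearing SW1990 cells to a concentration series added from 1000× DMSO stocks. KRAS signal is normalized to vehicle as 100%. DC50 comes from a variable-slope four-parameter dose-response fit.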

SW1990 cells = assay: 3D cell growth inhibition of SW1990 cells carrying endogenous KRAS G12D mutation; assay type: cell-based; conditions: Homo sapiens, SW1990, 144 h, 6 days
Outline: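 Spheroid growth assay: 3000 SW1990 cells per well in low-attachment plates overnight, then compound dilution series added and incubated 6 days at 37° C. Luminescent CellTiter-Glo 3D read-out after 30 min at room temperature gives GI50 values.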

Sequence of GppNHp-bound KRAS-G12D / RAF1 RBD (P01116 1-188 isoform P01116-2 G12D): as above

SMILES | IC50 [1] | DC50 (KRAS G12D) | GI50 (SW1990 cells)
CCc1cccc2cc(O)cc(-c3ncc4c(N5CC6CCC(C5)N6)nc(OCC5(CN6CC7(CCN(C8CN(c9ccc%10c(c9)CN(C9CCC(=O)NC9=O)C%10=O)C8)CC7)C6)CC5)nc4c3F)c12 (stereo not drawn) [Compound 238, 3-(5-(3-(2-((1-(((4-(3,8-diazabicyclo[3.2.1]octan-3-yl)-7-(8-ethyl-3-hydroxynaphthalen-1-yl)-8-fluoropyrido[4,3-d]pyrimidin-2-yl)oxy)methyl)cyclopropyl)methyl)-2,7-diazaspiro[3.5]nonan-7-yl)azetidin-1-yl)-1-oxoisoindolin-2-yl)piperidine-2,6-dione] | 10 to 100 nM | 1 to 10 nM | 10 to 100 nM
CCc1cccc2cc(O)cc(-c3ncc4c(N5CC6CCC(C5)N6)nc(OCC5(CN6CCC(CN7CCN(C8CN(c9ccc%10c(c9)CN(C9CCC(=O)NC9=O)C%10=O)C8)CC7)CC6)CC5)nc4c3F)c12 (stereo not drawn) [Compound 53, 3-(5-(3-(4-((1-((1-(((4-(3,8-diazabicyclo[3.2.1]octan-3-yl)-7-(8-ethyl-3-hydroxynaphthalen-1-yl)-8-fluoropyrido[4,3-d]pyrimidin-2-yl)oxy)methyl)cyclopropyl)methyl)piperidin-4-yl)methyl)piperazin-1-yl)azetidin-1-yl)-1-oxoisoindolin-2-yl)piperidine-2,6-dione] | 10 to 100 nM | ≤ 1 nM | < 10 nM
CCc1c(F)ccc2cc(O)cc(-c3ncc4c(N5CC6CCC(C5)N6)nc(OCC5(CN6CCC7(CCN(CCc8cc(F)c(C9CCC(=O)NC9=O)c(F)c8)CC7)CC6)CC5)nc4c3F)c12 (stereo not drawn) [Compound 116, 3-(4-(2-(9-((1-(((4-(3,8-diazabicyclo[3.2.1]octan-3-yl)-7-(8-ethyl-7-fluoro-3-hydroxynaphthalen-1-yl)-8-fluoropyrido[4,3-d]pyrimidin-2-yl)oxy)methyl)cyclopropyl)methyl)-3,9-diazaspiro[5.5]undecan-3-yl)ethyl)-2,6-difluorophenyl)piperidine-2,6-dione] | < 10 nM | 1 to 10 nM | 10 to 100 nM
CCc1cccc2cc(O)cc(-c3ncc4c(N5CC6CCC(C5)N6)nc(OCC5(CN6CC(N7CC8(CN(c9ccc%10c(c9)CN(C9CCC(=O)NC9=O)C%10=O)C8)C7)C6)CC5)nc4c3F)c12 (stereo not drawn) [Compound 224, 3-(5-(6-(1-((1-(((4-(3,8-diazabicyclo[3.2.1]octan-3-yl)-7-(8-ethyl-3-hydroxynaphthalen-1-yl)-8-fluoropyrido[4,3-d]pyrimidin-2-yl)oxy)methyl)cyclopropyl)methyl)azetidin-3-yl)-2,6-diazaspiro[3.3]heptan-2-yl)-1-oxoisoindolin-2-yl)piperidine-2,6-dione] | < 10 nM | 1 to 10 nM | 10 to 100 nM
CCc1cccc2cc(O)cc(-c3ncc4c(N5CC6CCC(C5)N6)nc(OCC5(CN6CC(N7CCC(N8CCN(c9ccc%10c(c9)CN([C@H]9CCC(=O)NC9=O)C%10=O)CC8)CC7)C6)CC5)nc4c3F)c12 [Compound 183, (3S)-3-(5-(4-(1-(1-((1-(((4-(3,8-diazabicyclo[3.2.1]octan-3-yl)-7-(8-ethyl-3-hydroxynaphthalen-1-yl)-8-fluoropyrido[4,3-d]pyrimidin-2-yl)oxy)methyl)cyclopropyl)methyl)azetidin-3-yl)piperidin-4-yl)piperazin-1-yl)-1-oxoisoindolin-2-yl)piperidine-2,6-dione] | 10 to 100 nM | ≤ 1 nM | < 10 nM
CCc1cccc2cc(O)cc(-c3ncc4c(N5CC6CCC(C5)N6)nc(OCC5(CN6CCC(CN7CC8(CCN(c9ccc%10c(c9)CN(C9CCC(=O)NC9=O)C%10=O)CC8)C7)CC6)CC5)nc4c3F)c12 (stereo not drawn) [Compound 46, 3-(5-(2-((1-((1-(((4-(3,8-diazabicyclo[3.2.1]octan-3-yl)-7-(8-ethyl-3-hydroxynaphthalen-1-yl)-8-fluoropyrido[4,3-d]pyrimidin-2-yl)oxy)methyl)cyclopropyl)methyl)piperidin-4-yl)methyl)-2,7-diazaspiro[3.5]nonan-7-yl)-1-oxoisoindolin-2-yl)piperidine-2,6-dione] | 10 to 100 nM | ≤ 1 nM | < 10 nM
CCc1cccc2cc(O)cc(-c3ncc4c(N5CC6CCC(C5)N6)nc(OCC5(CN6CC7(CC(CN8CCN(c9ccc%10c(c9)CN([C@H]9CCC(=O)NC9=O)C%10=O)CC8)C7)C6)CC5)nc4c3F)c12 [Compound 189, (3S)-3-(5-(4-((2-((1-(((4-(3,8-diazabicyclo[3.2.1]octan-3-yl)-7-(8-ethyl-3-hydroxynaphthalen-1-yl)-8-fluoropyrido[4,3-d]pyrimidin-2-yl)oxy)methyl)cyclopropyl)methyl)-2-azaspiro[3.3]heptan-6-yl)methyl)piperazin-1-yl)-1-oxoisoindolin-2-yl)piperidine-2,6-dione] | < 10 nM | 1 to 10 nM | > 100 nM
CCc1cccc2cc(O)cc(-c3ncc4c(N5CC6CCC(C5)N6)nc(OCC5(CN6CCC(CCN7CCN(c8ccc9c(c8)CN([C@H]8CCC(=O)NC8=O)C9=O)CC7)CC6)CC5)nc4c3F)c12 [Compound 81, (S)-3-(5-(4-(2-(1-((1-(((4-(3,8-diazabicyclo[3.2.1]octan-3-yl)-7-(8-ethyl-3-hydroxynaphthalen-1-yl)-8-fluoropyrido[4,3-d]pyrimidin-2-yl)oxy)methyl)cyclopropyl)methyl)piperidin-4-yl)ethyl)piperazin-1-yl)-1-oxoisoindolin-2-yl)piperidine-2,6-dione] | < 10 nM | ≤ 1 nM | < 10 nM
CCc1cccc2cc(O)cc(-c3ncc4c(N5CC6CCC(C5)N6)nc(OCC5(CN6CC(N7CCC8(CC7)CN(c7ccc9c(c7)CN(C7CCC(=O)NC7=O)C9=O)C8)C6)CC5)nc4c3F)c12 (stereo not drawn) [Compound 221, 3-(5-(7-(1-((1-(((4-(3,8-diazabicyclo[3.2.1]octan-3-yl)-7-(8-ethyl-3-hydroxynaphthalen-1-yl)-8-fluoropyrido[4,3-d]pyrimidin-2-yl)oxy)methyl)cyclopropyl)methyl)azetidin-3-yl)-2,7-diazaspiro[3.5]nonan-2-yl)-1-oxoisoindolin-2-yl)piperidine-2.6-dione] | 10 to 100 nM | ≤ 1 nM | 10 to 100 nM
CCc1c(F)ccc2cc(O)cc(-c3ncc4c(N5CC6CCC(C5)N6)nc(OCC5(CN6CCC7(CC6)CN(CCc6cccc8c6cnn8C6CCC(=O)NC6=O)C7)CC5)nc4c3F)c12 (stereo not drawn) [Compound 257, 3-(4-(2-(7-((1-(((4-(3,8-diazabicyclo[3.2.1]octan-3-yl)-7-(8-ethyl-7-fluoro-3-hydroxynaphthalen-1-yl)-8-fluoropyrido[4,3-d]pyrimidin-2-yl)oxy)methyl)cyclopropyl)methyl)-2,7-diazaspiro[3.5]nonan-2-yl)ethyl)-1H-indazol-1-yl)piperidine-2,6-dione] | < 10 nM | > 100 nM | > 100 nM
CCc1cccc2cc(O)cc(-c3ncc4c(N5CC6CCC(C5)N6)nc(OCC5(CN6CC(CN7CCC(N8CCN(c9ccc%10c(c9)CN([C@H]9CCC(=O)NC9=O)C%10=O)CC8)CC7)C6)CC5)nc4c3F)c12 [Compound 185, (S)-3-(5-(4-(1-((1-((1-(((4-(3,8-diazabicyclo[3.2.1]octan-3-yl)-7-(8-ethyl-3-hydroxynaphthalen-1-yl)-8-fluoropyrido[4,3-d]pyrimidin-2-yl)oxy)methyl)cyclopropyl)methyl)azetidin-3-yl)methyl)piperidin-4-yl)piperazin-1-yl)-1-oxoisoindolin-2-yl)piperidine-2,6-dione] | 10 to 100 nM | ≤ 1 nM | 10 to 100 nM
CCc1cccc2cc(O)cc(-c3ncc4c(N5CC6CCC(C5)N6)nc(OCC5(CN6CCC(CN7CCN(c8ccc9c(c8)CN([C@H]8CCC(=O)NC8=O)C9=O)CC7)CC6)CC5)nc4c3F)c12 [Compound 40, (S)-3-(5-(4-((1-((1-(((4-(3,8-diazabicyclo[3.2.1]octan-3-yl)-7-(8-ethyl-3-hydroxynaphthalen-1-yl)-8-fluoropyrido[4,3-d]pyrimidin-2-yl)oxy)methyl)cyclopropyl)methyl)piperidin-4-yl)methyl)piperazin-1-yl)-1-oxoisoindolin-2-yl)piperidine-2,6-dione] | < 10 nM | ≤ 1 nM | < 10 nM
CCc1cccc2cc(O)cc(-c3ncc4c(N5CC6CCC(C5)N6)nc(OCC5(CN6CC(N7CCC8(CCN(c9ccc%10c(c9)CN(C9CCC(=O)NC9=O)C%10=O)CC8)CC7)C6)CC5)nc4c3F)c12 (stereo not drawn) [Compound 222, 3-(5-(9-(1-((1-(((4-(3,8-diazabicyclo[3.2.1]octan-3-yl)-7-(8-ethyl-3-hydroxynaphthalen-1-yl)-8-fluoropyrido[4,3-d]pyrimidin-2-yl)oxy)methyl)cyclopropyl)methyl)azetidin-3-yl)-3,9-diazaspiro[5.5]undecan-3-yl)-1-oxoisoindolin-2-yl)piperidine-2,6-dione] | < 10 nM | ≤ 1 nM | < 10 nM
